Results on two molecules are retold here after US20260365618A1 (priority 2022, published 2026).

Where “and” joins values, the source holds several entries; their conditions need not be identical. Equal values may be shown once. Entries after “also recorded” stand apart in the source; their conditions may differ. Read-outs that look alike come from different tables or passages of the source.

Assay [1] deals with F. tularensis subsp. tularensis. In words: microbe, parasite or virus in culture. The assay is classed as cell-based, Francisella tularensis subsp. tularensis.
Assay [2] relates to F. tularensis subsp. novicida. The assay is classed as cell-based, Francisella tularensis subsp. novicida.
Assay [3] concerns F. tularensis subsp. tularensis strain SchuS4. Also on record: species or system mice. The conditions noted are these: mouse.
Assay [4] deals with F. tularensis subsp. holarctica. In words: microbe, parasite or virus in culture. Type of assay: cell-based, Francisella tularensis subsp. holarctica.
A further assay concerns F. tularensis, total. Type of assay: cell-based, Francisella tularensis.
For assay [5], the system named is F. tularensis subsp. tularensis strain SchuS4. Type of assay: in vivo, mice.

For `CC[C@H]1OC(=O)[C@H](C)[C@@H](O[C@H]2C[C@@](C)(OC)[C@@H](O)[C@H](C)O2)[C@H](C)[C@@H](O[C@@H]2O[C@H](C)C[C@H](N(C)C)[C@H]2O)[C@](C)(O)C[C@@H](C)C(=O)[C@H](C)[C@@H](O)[C@]1(C)O` [Erythromycin], the “in vitro activity (in words)” value in assay [1] is on record as “slightly weaker activity”. For the same molecule, in assay [2] (subsp. novicida), the “activity (in words)” value was “inactive”. The MIC in assay [2] (subsp. novicida, N=1, CAMHB + 2% Isovitalex, 35 °C, 48 h) is no less than 8 µg/mL.
Regarding `C=C[C@]1(C)C[C@@H](OC(=O)CS[C@@H]2CC[C@@H](N)C[C@H]2O)[C@]2(C)[C@H](C)CC[C@]3(CCC(=O)[C@H]32)[C@@H](C)[C@@H]1O` [Lefamulin, 14-O-{[(1R, 2R, 4R)-4-amino-2-hydroxy-cyclohexylsulfanyl]-acetyl}-mutilin], the “efficacy in the murine in vivo model (in words)” value in assay [3] is “comparable efficacy”. In assay [3] (in vivo), the “animals surviving until day 45” value was “one”; the “effect of oral treatment on survival (in words)” value is “effective in prolonging the survival”; the “mortality 5 days after the last treatment” value is listed as roughly 100%; the “survival by the end of treatment (Day 15)” value is 100% and 90%. The “activity / MIC values compared with subsp. tularensis (in words)” value in assay [4] was “slightly higher”. Also, in the assay on F. tularensis, total, the “antimicrobial activity against F. tularensis (in words)” value is “active in vitro and in vivo; also recorded: potent inhibition”; the “in vitro activity (in words)” value is “potent in vitro activity”. Also, the “bacterial load in spleen” value in assay [5] (animals surviving until day 45 (ciprofloxacin: average of two; Lefamulin: one), spleen) is recorded as 7.7×10^6 CFU/g. In addition, the “bacterial load in lung” value in assay [5] (one remaining Lefamulin-treated animal, day 45, lung) is reported as 1.3×10^6 CFU/g. For the same molecule, in assay [1], the “in vitro activity (in words)” value is “surprisingly potent activity”. Also, the MIC in assay [1] (Francisella tularensis, read-out: concentration at which all subsp. tularensis isolates were inhibited) was no more than 4 µg/mL. In addition, the “activity (in words)” value in assay [2] is “Potent activity”.
